pIC50: −log10 of the molar value.
Columns and labels:
[1] = tested on: ES925; test: Cell growth, primary ESFT line ES925; type: cell-based; details: Homo sapiens, 72 h; 3 days; read-out: anti-proliferative IC50
Experimental: (§1) FIG. 33 provides data showing YK-4-279 is potent and specific inhibitor of ESFT. […] Cell number was measured by MTT or WST reduction after seven days in culture. […] FIG. 33D cell lines expressing EWS-FLI1 compared to non-EWS-FLI1 malignant cell lines following 3 days in culture to establish the IC50 using WST assay. […] Graph plots level of fluorescence in treated divided by untreated lysate. […] Scale bar equals 200 μm.

[2] = tested on: NFκB responsive promoter; test: NFκB responsive reporter in COS7 cells activated with PMA; type: cell-based; details: after PMA
Experimental: FIG. 38A provides data showing COST cells transfected with an NFκB reporter construct followed by stimulation with PMA. Cells were treated with YK-4-279 following PMA treatment. Cell lysates were analyzed for NFκB induced luciferase activity as standardized to LTR activated renilla luciferase.

[3] = tested on: non-transformed HEK293 cells; test: Cell growth, HEK293; type: cell-based; details: TC32 vs HEK293
Experimental: as §1

[4] = tested on: A673 cells; test: YK-4-279 toxicity in shRNA-modified ESFT cells; type: cell-based; details: for pIC50: Homo sapiens
Experimental: (§2) FIG. 39A provides data showing HEC and HFK, non-transformed endocervical cells and keritinocytes, treated with YK-4-279 for 72 hours and assayed for viability using WST reduction. FIG. 39B provides data showing TC71 cells treated for 16 hours with YK-4-279 or doxorubicin. Lysates were assayed for cleavage of AMC-DEVD by induced caspase-3 and fluorescence was measured. FIG. 39C provides data showing that RHA reduced TC71 cells were more resistant to YK-4-279 treatment than wild-type cells. FIG. 39D provides data showing an shRNA tet-inducible expression vector stably transfected into A673 (ESFT) cells to reduce EWS-FLI1 levels. FIG. 39E provides data showing that EWS-FLI1 reduced A673 cells were more resistant to YK-4-279 treatment than wild-type cells.
shRNA (short hairpin RNA) against RHA was purchased from Open Biosystems (Huntsville, Ala.) Both virus production and purification were done according to Open Biosystems protocols. (For designing shRNA see McIntyre G. J. et al. “Design and cloning strategies for constructing shRNA expression vectors.” BMC Biotechnol. (2006) 6:1)
In order to further support for the target specificity of YK-4-279 toxicity upon ESFT cells, the levels of each of the critical proteins were reduced by using shRNA in A673 cells42. […] When EWS-FLI1 was reduced using shRNA, the IC50 increased 10-fold from 0.5 μM to approximately 5 μM (FIG. 39D, FIG. 39E).

[5] = tested on: ESFT xenografts (TC71 and CHP-100); test: ESFT orthotopic xenografts treated with YK-4-279; type: in vivo, mice
Experimental: Xenografts were established with injection of either ESFT (CHP-100 or TC71) or Prostate cancer (PC3) cells. […] Single experiment growth curves depicted are representative of five independent experiments. […] Tumor volumes at day 14 after treatment initiation compared across 5 experiments (DMSO n=19, YK-4-279 n=25, p<0.0001, by Mann-Whitney test).
One million TC71 or CHP-100 cells in 100 μL HBSS were injected orthotopically into the gastrocnemius muscle of 4-8 week old SCID/bg mice (Taconic, Germantown, N.Y.). Prostate cancer xenografts were established by subcutaneous injection of 5 million PC3 cells into the flanks of 4-8 week old nude mice (Taconic). Mice were randomized to receive three times per week intraperitoneal injections of DMSO, YK-4-279 at 1.5 mg/dose when tumors were palpable. Each of the animal experiments was begun with 10 mice that were randomized into treatment and control groups when the tumors reached palpable size. In the control groups some tumors exceeded the IACUC maximal size (2 cm in any dimension) and were euthanized prior to day 14 and thus not included in the day 14 analysis (FIG. 6c). Tumor length and width were measured every 2-4 days and volume was calculated using the formula […] where D is the longest diameter and d is the shorter diameter. Xenograft studies were approved by the Memorial Sloan-Kettering Cancer Center Institutional Animal Care and Use Committee.

[6] = tested on: cyclin D levels in four non-EWS-FLI1 containing cell lines; test: Cyclin D immunoblot, non-EWS-FLI1 containing cell lines; type: cell-based; details: 10 μM overnight
[7] = tested on: EWS-FLI1; test: Fluorescence polarization assay, FITC-E9R displacement; type: binding; details: 30 μM YK-4-279; 3.2 μM FITC-E9R
Experimental: The assay was performed in 20 mM Tris, 500 mM NaCl, 0.67 M imidazole, pH 7.4. The fluorescence polarization was analyzed in a QuantaMaster fluorimeter (Photon Technology International, Ford, West Sussex, UK) equipped with polymer sheet polarizers at an excitation wavelength of 495 nm and emission wavelength of 517 nm. […] (3.2 μM, as determined from saturated binding curve) with the same buffer and instrumental settings as described above.

[8] = tested on: non-transformed keratinocytes (HFK) and ectocervical cells (HEC); test: Viability (WST), non-transformed HFK and HEC; type: cell-based; details: Keratinocyte, 72 h; treated for 3 days
Experimental: as §2

[9] = tested on: ESFT cell lines (TC32, A4573, TC71, and ES925); test: Caspase-3 activity (DEVD-AMC cleavage), ESFT cell lines; type: cell-based; details: 24 hours
Experimental: (§3) Cells were treated for 24 hours with 10 μM YK-4-279. The Caspase-3 substrate DEVD-AMC was incubated with equal amounts of protein lysate and fluorescence from cleaved substrate measured in a fluorimeter. TC32 and non-transformed cells HEK-293, HFK, and HEC were treated for 6 hours with high dose (50 μM) YK-4-279. DAPI stained cells were photographed at 600× using inverted fluorescence microscope.

[10] = tested on: cell lines that lack EWSFLI1; test: Cell growth (WST), cell lines that lack EWS-FLI1; type: cell-based; details: 72 h, 3 days
Experimental: as §1

[11] = tested on: non-EWS-FLI1 cancer cell lines and non-transformed cell lines (HFK, HEC, HEK293); test: Caspase-3 activity, non-EWS-FLI1 cancer and non-transformed cell lines; type: cell-based; details: 10 μM, 24 hours
Experimental: as §1, §3

[12] = tested on: HEK293, HFK, and HEC; test: Nuclear fragmentation (DAPI), non-transformed cells; type: cell-based; details: 50 μM, 6 hours
Experimental: as §3

## O=C(CC1(O)C(=O)Nc2c(Cl)ccc(Cl)c21)c1ccc(Cl)cc1 (stereo not shown) [NSC635437, 4,7-Dichloro-3-[2-(4-chlorophenyl)-2-oxoethyl]-3-hydroxyl-1,3-dihydro-2H-indol-2-one]
other
  melting point: 194 to 196 °C

## COc1ccc(C(=O)CC2(O)C(=O)Nc3c(Cl)ccc(Cl)c32)cc1 (stereo not shown) [YK-4-279, 4,7-Dichloro-3-hydroxy-3-[2-(4-methoxyphenyl)-2-oxoethyl]-1,3-dihydro-2H-indol-2-one]
[1]
  pIC50: 6.00
[2]
  NFκB responsive promoter activity: did not affect the NFκB responsive promoter
[3]
  difference in IC50, ESFT cells compared to HEK293: 10 fold
[4]
  increase of IC50 when EWS-FLI1 was reduced: 10 fold
[4]; A673, EWS-FLI1 reduced using shRNA
  pIC50: ~5.30
[4]; A673, RHA reduced cells (shRNA)
  pIC50: < 5.00
[4]; A673, before EWS-FLI1 reduction
  pIC50: 6.30
[4]; A673, control shRNA (targeting luciferase)
  pIC50: > 6.00
[5]; 60-75 mg/kg
  tumor growth: significantly reduced tumor growth
[5]; CHP-100, 1.5 mg/dose i.p. three times per week
  tumor growth rate: reduced
[5]; CHP-100 xenograft tumors, immunohistochemistry
  increase in caspase-3 activity in tumors compared to control animals: 3 fold
[5]; TC71 and CHP-100, 1.5 mg/dose
  overall response, tumor volumes at day 14, five experiments: marked overall tumor reduction
[5]; mouse, in vivo
  pathological analysis of treated animals: did not show any signs of toxicity except changes related to IP injection
[6]
  cyclin D levels: did not affect cyclin D levels
[7]
  displacement of FITC-E9R from EWS-FLI1: complete displacement
[8]
  pIC50: < 4.52
[9]; TC32 cells, dose range
  caspase-3 activity: rose in a dose dependent fashion
[9]; four ESFT cell lines, 10 μM
  caspase-3 activation: induced caspase-3 activity
[10]
  pIC50: < 4.60
[11]
  apoptosis (caspase-3 activation): none
[12]
  cell death (nuclear fragmentation): no cell death
